We go through 16 compounds from US8278473B2, “Alpha, beta-unsaturated imidate compound and pesticidal composition containing the same” (Sumitomo Chemical Company, Limited, priority 2007, dated 2012).

For the assay, the system named is Haemaphysalis longicornis. Briefly: Test Example 10: Haemaphysalis longicornis, treated filter paper pouch. It is filed as in vivo. The note with it: 0.5 mg compound on filter paper 5×10 cm; non-blood sucking nymphal ticks; after 2 days. Here is the method:
In 1 mL of acetone, 0.5 mg of any one of the present compounds 1 to 48 was dissolved, and the solution was spread uniformly on one side of a filter paper (TOYO No. 2; 5×10 cm). After dried, the filter paper was folded into two, and the sides were clipped to make a pouch. Into the pouch, tested ticks (Haemaphysalis longicornis, non-blood sucking nymphal ticks, 10 ticks in a group) were placed. The pouch was clipped and sealed. After 2 days, the number of dead ticks was counted.

For `COc1cccc(OC(=Nc2ccc(C)cc2)C(C)=COc2ccccc2OC)c1` [Compound 242, 3-methoxyphenyl 3-(2-methoxyphenyloxy)-2-methyl-N-(4-methylphenyl)-2-propenimidate], the death rate was 100%.
On to `COc1ccccc1OC=C(C)C(=Nc1ccc(C)cc1)Oc1cccc(C)c1` [Compound 240, 3-methylphenyl 3-(2-methoxyphenyloxy)-2-methyl-N-(4-methylphenyl)-2-propenimidate], for which the death rate came out at 100%.
To `CCOc1cccc(OC(=Nc2ccc(C)cc2)C(C)=COc2cccc(C)c2)c1` [Compound 186, 3-ethoxyphenyl 2-methyl-N-(4-methylphenyl)-3-(3-methylphenyloxy)-2-propenimidate] belongs 100%; to `COc1ccccc1OC=C(C)C(=Nc1ccccc1)Oc1cc(C)cc(C)c1` [Compound 238, 3,5-dimethylphenyl 3-(2-methoxyphenyloxy)-2-methyl-N-phenyl-2-propenimidate], 100%; to `CC(=COc1ccc(C)cc1)C(=Nc1ccccc1)Oc1cccc(C)c1` [Compound 195, 3-methylphenyl 2-methyl-3-(4-methylphenyloxy)-N-phenyl-2-propenimidate], 100%.
`CCOc1cccc(OC(=Nc2ccccc2)C(C)=COc2cccc(C)c2)c1` [Compound 179, 3-ethoxyphenyl 2-methyl-3-(3-methylphenyloxy)-N-phenyl-2-propenimidate] came in with a death rate of 100%.
To `COc1cccc(OC=C(C)C(=Nc2ccc(C)cc2)Oc2cccc(C)c2)c1` [Compound 261, 3-methylphenyl 3-(3-methoxyphenyloxy)-2-methyl-N-(4-methylphenyl)-2-propenimidate] belongs 100%; to `COc1ccc(OC=C(C)C(=Nc2ccc(C)cc2)Oc2ccc(C)cc2)cc1` [Compound 271, 4-methylphenyl 3-(4-methoxyphenyloxy)-2-methyl-N-(4-methylphenyl)-2-propenimidate], 100%; to `CCC(=COc1ccccc1)C(=Nc1ccccc1)Oc1ccccc1` [Compound 301, phenyl 2-ethyl-3-phenoxy-N-phenyl-2-propenimidate], 100%.
For the compound `CCCC(=COc1ccccc1)C(=Nc1ccccc1)Oc1ccccc1` [Compound 322, phenyl 3-phenoxy-N-phenyl-2-n-propyl-2-propenimidate], the death rate worked out at 100%.
To `CC(=COc1ccc(C)cc1)C(=Nc1ccccc1)Oc1ccccc1C` [Compound 194, 2-methylphenyl 2-methyl-3-(4-methylphenyloxy)-N-phenyl-2-propenimidate] belongs 100%; to `CC(=COc1ccc(C)cc1)C(=Nc1ccccc1)Oc1ccc2ccccc2c1` [Compound 207, 2-naphthyl 2-methyl-3-(4-methylphenyloxy)-N-phenyl-2-propenimidate], 100%; to `COc1ccc(OC(=Nc2ccc(C)cc2)C(C)=COc2ccc(C)cc2)cc1` [Compound 221, 4-methoxyphenyl 2-methyl-N-(4-methylphenyl)-3-(4-methylphenyloxy)-2-propenimidate], 100%.
Take `CCc1cccc(OC(=Nc2ccc(C)cc2)C(C)=COc2ccccc2OC)c1` [Compound 241, 3-ethylphenyl 3-(2-methoxyphenyloxy)-2-methyl-N-(4-methylphenyl)-2-propenimidate]: the death rate turned out to be 100%.
Turning to `CC(=COc1ccc(C)cc1)C(=Nc1ccc(C)cc1)Oc1cccc(C)c1` [Compound 210, 3-methylphenyl 2-methyl-N-(4-methylphenyl)-3-(4-methylphenyloxy)-2-propenimidate], the death rate is 100%.
Compound `CC(=COc1ccc(C)c(C)c1)C(=Nc1ccccc1)Oc1ccccc1` [Compound 292, phenyl 3-(3,4-dimethylphenyloxy)-2-methyl-N-phenyl-2-propenimidate] gave a death rate of 100%.
